Measured values taken from patent publication US8299048B2, “Hexahydrocyclopentyl[f]indazole sulfonamides and derivatives thereof as selective glucocorticoid receptor modulators” (Merck Sharp & Dohme Corp., priority 2008, dated 2012).

How the values were obtained:
[1] = target: T1, human GR (Homo sapiens, UniProt P04150); assay: Trans-Activation Modulation of Glucocorticoid Receptor (GRAMMER), MMTV-LUC reporter, agonist mode; assay type: cell-based; set-up: endogenous in cells; settings: for EC50: inflection point, read-out: Transactivation A549 Cells GRAMMER IP; for Emax: A549, A549 cells, read-out: Transactivation A549 Cells GRAMMER Emax
T1 sequence (P04150 1-777): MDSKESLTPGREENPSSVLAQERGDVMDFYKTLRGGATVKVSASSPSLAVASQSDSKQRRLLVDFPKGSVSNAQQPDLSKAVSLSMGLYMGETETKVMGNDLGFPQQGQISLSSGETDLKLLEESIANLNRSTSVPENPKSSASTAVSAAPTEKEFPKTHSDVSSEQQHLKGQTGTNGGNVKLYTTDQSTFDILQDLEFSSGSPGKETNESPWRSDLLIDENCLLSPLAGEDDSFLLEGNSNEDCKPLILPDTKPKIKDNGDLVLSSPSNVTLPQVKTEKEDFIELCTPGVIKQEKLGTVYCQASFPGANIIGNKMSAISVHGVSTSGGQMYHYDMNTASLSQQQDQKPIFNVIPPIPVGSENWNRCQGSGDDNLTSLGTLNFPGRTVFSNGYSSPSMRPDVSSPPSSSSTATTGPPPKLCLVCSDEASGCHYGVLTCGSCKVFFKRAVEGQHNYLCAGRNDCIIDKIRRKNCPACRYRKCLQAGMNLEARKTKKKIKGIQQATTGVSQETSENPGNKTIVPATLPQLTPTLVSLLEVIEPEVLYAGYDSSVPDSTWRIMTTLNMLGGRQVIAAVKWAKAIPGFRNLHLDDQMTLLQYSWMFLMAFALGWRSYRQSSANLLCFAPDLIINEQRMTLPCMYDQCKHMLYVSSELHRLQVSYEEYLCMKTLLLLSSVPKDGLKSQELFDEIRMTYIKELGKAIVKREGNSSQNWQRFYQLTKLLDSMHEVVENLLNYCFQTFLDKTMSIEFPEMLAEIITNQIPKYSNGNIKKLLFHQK
In short: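 Readout is luciferase from a modified MMTV LTR promoter after 24 h compound exposure alongside 10 nM dexamethasone (100% activity reference), DMSO ≤1%.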

[2] = target: T1, human GR; assay: Transrepression Assay (GITAR), TNFα-β-lactamase reporter in U937 cells; assay type: cell-based; set-up: U937 cells contain an endogenous glucocorticoid receptor (GR); endogenous in cells; host or cells: U937 cells stably transfected with the TNF-alpha promoter/beta-lactamase reporter; settings: for GITAR > GRAMM % SEP: GITAR Emax minus GRAMMER Emax; for EC50: inflection point, read-out: Transrepression U937 Cells GITAR IP
In short: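 Repression normalised to 100 nM dexamethasone (100%), measured with CCF2-AM β-lactamase substrate after 70–90 min at room temperature. Stably transfected U937 cells were exposed to compound 30–45 min, then to PMA (5 ng/ml final) plus LPS (100 ng/ml final) overnight (~18 hr), 37° C.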

[3] = U-937, U937 cells, maximum activity, read-out: Transrepression U937 Cells GITAR Emax
[4] = U-937, activity repressed by 100 nM dexamethasone alone set as 100%, read-out: maximal activity in the transrepression (GITAR) assay

## C[C@]12Cc3cnn(-c4ccc(F)cc4)c3C=C1CC[C@@H]2CN(CCc1ccccn1)S(=O)(=O)Cc1cccnc1 [Example 1, N-{[(4αR,5S)-1-(4-Fluorophenyl)-4α-methyl-1,4,4α,5,6,7-hexahydrocyclopenta[f]indazol-5-yl]methyl}-1-pyridin-3-yl-N-(2-pyridin-2-ylethyl)methanesulfonamide]
[1]; A549 cells
  EC50: 351 nM
[1]; A549 cells, maximum activity
  Transactivation A549 Cells GRAMMER Emax: 31.6%
[2]
  GITAR > GRAMM % SEP: 41.9%
[2]; U937 cells
  EC50: 407 nM
[2]; U937 cells, maximum activity
  Transrepression U937 Cells GITAR Emax: 73.5%

## C[C@]12Cc3cnn(-c4ccc(F)cc4)c3C=C1CC[C@@H]2CN(CC1CC1)S(=O)(=O)c1ccccc1F [Example 2, N-(cyclopropylmethyl)-2-fluoro-N-{[(4αR,5S)-1-(4-fluorophenyl)-4α-methyl-1,4,4α,5,6,7-hexahydrocyclopenta[f]indazol-5-yl]methyl}benzenesulfonamide]
[1]; maximum activity
  Emax: 50.5%
[1]; A549 cells
  EC50: 218 nM
[2]; U937 cells
  EC50: 260 nM
[2]; [3]
  Emax: 73.3%
[2]; [4]
  Emax: > 5%

## C=CCN(C[C@H]1CCC2=Cc3c(cnn3-c3ccc(F)cc3)C[C@@]21C)S(=O)(=O)c1ccccc1F [Example 3, N-allyl-2-fluoro-N-{[(4αR,5S)-1-(4-fluorophenyl)-4α-methyl-1,4,4α,5,6,7-hexahydrocyclopenta[f]indazol-5-yl]methyl}benzenesulfonamide]
[1]; maximum activity
  Emax: 39.3%
[1]; A549 cells
  EC50: 368 nM
[2]; U937 cells
  EC50: 407 nM
[2]; [3]
  Emax: 65.1%
[2]; [4]
  Emax: > 5%

## C[C@]12Cc3cnn(-c4ccc(F)cc4)c3C=C1CC[C@@H]2CN(CC1CC1)S(=O)(=O)c1ccccc1C(F)(F)F [Example 4, N-(cyclopropylmethyl)-N-{[(4αR,5S)-1-(4-fluorophenyl)-4α-methyl-1,4,4α,5,6,7-hexahydrocyclopenta[f]indazol-5-yl]methyl}-2-(trifluoromethyl)benzenesulfonamide]
[1]; maximum activity
  Emax: 16.9%
[1]; A549 cells
  EC50: 294 nM
[2]
  GITAR > GRAMM % SEP: 36.2%
[2]; U937 cells
  EC50: 256 nM
[2]; [3]
  Emax: 53.1%
[2]; [4]
  Emax: > 5%

## C[C@]12Cc3cnn(-c4ccc(F)cc4)c3C=C1CC[C@@H]2CN(CCO)S(=O)(=O)Cc1cccc(C(F)(F)F)c1 [Example 63, N-{[(4αR,5S)-1-(4-fluorophenyl)-4α-methyl-1,4,4α,5,6,7-hexahydrocyclopenta[f]indazol-5-yl]methyl}-N-(2-hydroxyethyl)-1-[3-(trifluoromethyl)phenyl]methanesulfonamide]
[1]; maximum activity
  Emax: 2.1%
[1]; A549 cells
  EC50: 1410 nM
[2]
  GITAR > GRAMM % SEP: 9.9%
[2]; U937 cells
  EC50: 404 nM
[2]; [3]
  Emax: 12%
[2]; [4]
  Emax: > 5%

## Cc1ccc(S(=O)(=O)N(CCO)C[C@H]2CCC3=Cc4c(cnn4-c4ccc(F)cc4)C[C@@]32C)s1 [Example 64, N-{[(4αR,5S)-1-(4-fluorophenyl)-4α-methyl-1,4,4α,5,6,7-hexahydrocyclopenta[f]indazol-5-yl]methyl}-N-(2-hydroxyethyl)-5-methylthiophene-2-sulfonamide]
[1]; maximum activity
  Emax: 7.9%
[1]; A549 cells
  EC50: 622 nM
[2]
  GITAR > GRAMM % SEP: 21.1%
[2]; U937 cells
  EC50: 731 nM
[2]; [3]
  Emax: 29%
[2]; [4]
  Emax: > 5%

## Cn1cc(S(=O)(=O)N(CCO)C[C@H]2CCC3=Cc4c(cnn4-c4ccc(F)cc4)C[C@@]32C)c(C(F)(F)F)n1 [Example 65, N-{[(4αR,5S)-1-(4-fluorophenyl)-4α-methyl-1,4,4α,5,6,7-hexahydrocyclopenta[f]indazol-5-yl]methyl}-N-(2-hydroxyethyl)-1-methyl-3-(trifluoromethyl)-1H-pyrazole-4-sulfonamide]
[1]; maximum activity
  Emax: 19.6%
[1]; A549 cells
  EC50: 1080 nM
[2]
  GITAR > GRAMM % SEP: 41.3%
[2]; U937 cells
  EC50: 894 nM
[2]; [3]
  Emax: 61%
[2]; [4]
  Emax: > 5%

## Cc1cc(S(=O)(=O)N(CCO)C[C@H]2CCC3=Cc4c(cnn4-c4ccc(F)cc4)C[C@@]32C)c(C)o1 [Example 66, N-{[(4αR,5S)-1-(4-fluorophenyl)-4α-methyl-1,4,4α,5,6,7-hexahydrocyclopenta[f]indazol-5-yl]methyl}-N-(2-hydroxyethyl)-2,5-dimethylfuran-3-sulfonamide]
[1]; maximum activity
  Emax: 5.3%
[1]; A549 cells
  EC50: 1180 nM
[2]
  GITAR > GRAMM % SEP: 19.2%
[2]; U937 cells
  EC50: 929 nM
[2]; [3]
  Emax: 24.5%
[2]; [4]
  Emax: > 5%

## Cn1nc(C(F)(F)F)cc1-c1ccc(S(=O)(=O)N(CCO)C[C@H]2CCC3=Cc4c(cnn4-c4ccc(F)cc4)C[C@@]32C)s1 [Example 67, N-{[(4αR,5S)-1-(4-fluorophenyl)-4α-methyl-1,4,4α,5,6,7-hexahydrocyclopenta[f]indazol-5-yl]methyl}-N-(2-hydroxyethyl)-5-[1-methyl-3-(trifluoromethyl)-1H-pyrazole-5-yl]thiophene-2-sulfonamide]
[1]; maximum activity
  Emax: 6.5%
[1]; A549 cells
  EC50: 450 nM
[2]
  GITAR > GRAMM % SEP: 22.8%
[2]; U937 cells
  EC50: 2060 nM
[2]; [3]
  Emax: 29.3%
[2]; [4]
  Emax: > 5%

## C[C@]12Cc3cnn(-c4ccc(F)cc4)c3C=C1CC[C@@H]2CN(CCO)S(=O)(=O)c1cccc(C#N)c1 [Example 68, 3-cyano-N-{[(4αR,5S)-1-(4-fluorophenyl)-4α-methyl-1,4,4α,5,6,7-hexahydrocyclopenta[f]indazol-5-yl]methyl}-N-(2-hydroxyethyl)benezenesulfonamide]
[1]; maximum activity
  Emax: 10%
[1]; A549 cells
  EC50: 951 nM
[2]
  GITAR > GRAMM % SEP: 22.9%
[2]; U937 cells
  EC50: 757 nM
[2]; [3]
  Emax: 32.9%
[2]; [4]
  Emax: > 5%

## C[C@]12Cc3cnn(-c4ccc(F)cc4)c3C=C1CC[C@@H]2CN(CCO)S(=O)(=O)c1ccc(Oc2cccc(Cl)c2C#N)cc1 [Example 69, 4-(3-chloro-2-cyanophenoxy)-N-{[(4αR,5S)-1-(4-fluorophenyl)-4α-methyl-1,4,4α,5,6,7-hexahydrocyclopenta[f]indazol-5-yl]methyl}-N-(2-hydroxyethyl)benzenesulfonamide]
[1]; maximum activity
  Emax: 12.6%
[1]; A549 cells
  EC50: 852 nM
[2]
  GITAR > GRAMM % SEP: 22.2%
[2]; U937 cells
  EC50: 2540 nM
[2]; [3]
  Emax: 34.8%
[2]; [4]
  Emax: > 5%

## C[C@]12Cc3cnn(-c4ccc(F)cc4)c3C=C1CC[C@@H]2CN(CCO)S(=O)(=O)c1ccccc1C(F)(F)F [Example 70, N-{[(4αR,5S)-1-(4-fluorophenyl)-4α-methyl-1,4,4α,5,6,7-hexahydrocyclopenta[f]indazol-5-yl]methyl}-N-(2-hydroxyethyl)-2-(trifluoromethyl)benzenesulfonamide]
[1]; maximum activity
  Emax: 25.8%
[1]; A549 cells
  EC50: 564 nM
[2]
  GITAR > GRAMM % SEP: 15.1%
[2]; U937 cells
  EC50: 1010 nM
[2]; [3]
  Emax: 40.8%
[2]; [4]
  Emax: > 5%

## Cc1noc(C)c1S(=O)(=O)N(CCO)C[C@H]1CCC2=Cc3c(cnn3-c3ccc(F)cc3)C[C@@]21C [Example 71, N-{[(4αR,5S)-1-(4-fluorophenyl)-4α-methyl-1,4,4α,5,6,7-hexahydrocyclopenta[f]indazol-5-yl]methyl}-N-(2-hydroxyethyl)-3,5-dimethylisoxazole-4-sulfonamide]
[1]; maximum activity
  Emax: 63.1%
[1]; A549 cells
  EC50: 257 nM
[2]
  GITAR > GRAMM % SEP: 19.2%
[2]; U937 cells
  EC50: 302 nM
[2]; [3]
  Emax: 82.3%
[2]; [4]
  Emax: > 5%

## C[C@]12Cc3cnn(-c4ccc(F)cc4)c3C=C1CC[C@@H]2CN(CCO)S(=O)(=O)c1cc(F)cc(F)c1 [Example 72]
[1]; maximum activity
  Emax: 35.3%
[1]; A549 cells
  EC50: 475 nM
[2]
  GITAR > GRAMM % SEP: 25.5%
[2]; U937 cells
  EC50: 486 nM
[2]; [3]
  Emax: 60.8%
[2]; [4]
  Emax: > 5%

## COC(=O)c1ccccc1S(=O)(=O)N(CCO)C[C@H]1CCC2=Cc3c(cnn3-c3ccc(F)cc3)C[C@@]21C [Example 73, methyl 2-{[{[(4αR,5S)-1-(4-fluorophenyl)-4α-methyl-1,4,4α,5,6,7-hexahydrocyclopenta[f]indazol-5-yl]methyl}(2-hydroxyethyl)amino]sulfonyl}benzoate]
[1]; maximum activity
  Emax: 25.4%
[1]; A549 cells
  EC50: 364 nM
[2]
  GITAR > GRAMM % SEP: 56.0%
[2]; U937 cells
  EC50: 363 nM
[2]; [3]
  Emax: 81.4%
[2]; [4]
  Emax: > 5%

## C[C@]12Cc3cnn(-c4ccc(F)cc4)c3C=C1CC[C@@H]2CN(CCO)S(=O)(=O)c1ccc(Oc2ccccn2)cc1 [Example 74, N-{[(4αR,5S)-1-(4-fluorophenyl)-4α-methyl-1,4,4α,5,6,7-hexahydrocyclopenta[f]indazol-5-yl]methyl}-N-(2-hydroxyethyl)-4-(pyridin-2-yloxy)benzenesulfonamide]
[1]; maximum activity
  Emax: 34.1%
[1]; A549 cells
  EC50: 1030 nM
[2]
  GITAR > GRAMM % SEP: 9.9%
[2]; U937 cells
  EC50: 1140 nM
[2]; [3]
  Emax: 44.1%
[2]; [4]
  Emax: > 5%
